Converted amounts (≈) assume the structure as drawn. The source made the active and inactive calls. No cut-off for these calls is given here.
Key:
[1] = Modulation of alternative complement pathway system assessed as hemoglobin release by spectrophotometry
Pseudomonas aeruginosa = assay: Antimicrobial activity against Pseudomonas aeruginosa; format: functional
Candida albicans = assay: Antimicrobial activity against Candida albicans; format: functional
[2] = Antioxidant activity assessed as superoxide radical anion scavenging activity; format: functional
Streptococcus pyogenes = assay: Antimicrobial activity against Streptococcus pyogenes; format: functional
[3] = Selectivity index, ratio of CC50 for human MT4 cells to IC50 for HIV infected in human MT4 cells; format: functional
Simplexvirus = assay: Antiviral activity against HSV up to 200 ug/mL by extracellular virucidal assay; format: functional, organism-based
Staphylococcus aureus = assay: Antimicrobial activity against Staphylococcus aureus; format: functional
Enterobacter cloacae = assay: Antimicrobial activity against Enterobacter cloacae; format: functional
[4] = Modulation of classical complement pathway system assessed as hemoglobin release by spectrophotometry
[5] = system: Human immunodeficiency virus; assay: Antiviral activity against HIV infected in human MT4 cells assessed as inhibition of virus-induced cytopathic effect by MTT assay; format: functional, organism-based; conditions: Human immunodeficiency virus 1, MT4
Escherichia coli = assay: Antimicrobial activity against Escherichia coli; format: functional
Salmonella paratyphi = assay: Antimicrobial activity against Salmonella paratyphi; format: functional, Salmonella enterica subsp. enterica serovar Paratyphi A; conditions: Salmonella enterica
[6] = system: Mycolicibacterium fortuitum; assay: Antimicrobial activity against Mycobacterium fortuitum; format: functional
[7] = Cytotoxicity against human MT4 cells by MTT assay; format: cell-based
Proteus vulgaris = assay: Antimicrobial activity against Proteus vulgaris; format: functional
Klebsiella pneumoniae = assay: Antimicrobial activity against Klebsiella pneumoniae; format: functional
Bacillus cereus = assay: Antimicrobial activity against Bacillus cereus; format: functional

Oc1cc(O)c2c(c1)O[C@H](c1ccc(O)c(O)c1)[C@@H](O)[C@@H]2c1c(O)cc(O)c2c1O[C@H](c1ccc(O)c(O)c1)[C@H](O)C2
Activity [1]: inactive
MBC (Pseudomonas aeruginosa): > 100 µg/mL
MIC (Pseudomonas aeruginosa): > 100 µg/mL
MBC (Candida albicans): > 100 µg/mL
MIC (Candida albicans): > 100 µg/mL
IC50 [2]: 30 µM
MBC (Streptococcus pyogenes): 50 µg/mL (≈ 86.4 µM)
MIC (Streptococcus pyogenes): 25 µg/mL (≈ 43.2 µM)
Ratio CC50/IC50 [3]: <1
Activity (Simplexvirus): inactive
MBC (Staphylococcus aureus): > 100 µg/mL
MIC (Staphylococcus aureus): > 100 µg/mL
MBC (Enterobacter cloacae): > 100 µg/mL
MIC (Enterobacter cloacae): > 100 µg/mL
IC50 [4]: 45.5 µM
IC50 [5]: > 0.3 µg/mL
MBC (Escherichia coli): > 100 µg/mL
MIC (Escherichia coli): > 100 µg/mL
MBC (Salmonella paratyphi): > 100 µg/mL
MIC (Salmonella paratyphi): > 100 µg/mL
MBC [6]: > 100 µg/mL
MIC [6]: > 100 µg/mL
CC50 [7]: 0.3 µg/mL (≈ 0.519 µM)

Oc1cc(O)c2c(c1)O[C@H](c1ccc(O)c(O)c1)[C@@H](O)[C@@H]2c1c(O)cc2c(c1O)C[C@H](O)[C@@H](c1ccc(O)c(O)c1)O2
Activity [1]: inactive
MBC (Pseudomonas aeruginosa): > 100 µg/mL
MIC (Pseudomonas aeruginosa): > 100 µg/mL
MBC (Candida albicans): > 100 µg/mL
MIC (Candida albicans): > 100 µg/mL
IC50 [2]: 27.3 µM
MBC (Streptococcus pyogenes): 100 µg/mL (≈ 173 µM)
MIC (Streptococcus pyogenes): 100 µg/mL (≈ 173 µM)
Ratio CC50/IC50 [3]: 5
Activity (Simplexvirus): inactive
MBC (Staphylococcus aureus): > 100 µg/mL
MIC (Staphylococcus aureus): > 100 µg/mL
MBC (Enterobacter cloacae): > 100 µg/mL
MIC (Enterobacter cloacae): > 100 µg/mL
IC50 [4]: 18.5 µM
IC50 [5]: 29.9 µg/mL (≈ 51.7 µM)
MBC (Escherichia coli): > 100 µg/mL
MIC (Escherichia coli): > 100 µg/mL
MBC (Salmonella paratyphi): > 100 µg/mL
MIC (Salmonella paratyphi): > 100 µg/mL
MBC [6]: > 100 µg/mL
MIC [6]: > 100 µg/mL
CC50 [7]: 141 µg/mL (≈ 244 µM)

Oc1cc(O)c2c(c1)O[C@H](c1ccc(O)c(O)c1)[C@H](O)[C@H]2c1c(O)cc2c(c1O)C[C@@H](O)[C@@H](c1ccc(O)c(O)c1)O2
Activity [1]: inactive
MBC (Pseudomonas aeruginosa): > 100 µg/mL
MIC (Pseudomonas aeruginosa): > 100 µg/mL
MBC (Candida albicans): > 100 µg/mL
MIC (Candida albicans): > 100 µg/mL
IC50 [2]: 11.4 µM
MBC (Streptococcus pyogenes): 100 µg/mL (≈ 173 µM)
MIC (Streptococcus pyogenes): 100 µg/mL (≈ 173 µM)
Ratio CC50/IC50 [3]: 9
Activity (Simplexvirus): inactive
MBC (Staphylococcus aureus): > 100 µg/mL
MIC (Staphylococcus aureus): > 100 µg/mL
MBC (Enterobacter cloacae): > 100 µg/mL
MIC (Enterobacter cloacae): > 100 µg/mL
IC50 [4]: 51.7 µM
IC50 [5]: 8.3 µg/mL (≈ 14.3 µM)
MBC (Escherichia coli): > 100 µg/mL
MIC (Escherichia coli): > 100 µg/mL
MBC (Salmonella paratyphi): > 100 µg/mL
MIC (Salmonella paratyphi): > 100 µg/mL
MBC [6]: > 100 µg/mL
MIC [6]: > 100 µg/mL
CC50 [7]: 53.5 µg/mL (≈ 92.5 µM)

O=C1c2c(O)cc(O)cc2O[C@H](c2ccc(O)c(O)c2)[C@H]1O [(+)-TAXIFOLIN]
Activity [1]: inactive
MBC (Pseudomonas aeruginosa): > 100 µg/mL
MIC (Pseudomonas aeruginosa): > 100 µg/mL
MBC (Candida albicans): > 100 µg/mL
MIC (Candida albicans): > 100 µg/mL
IC50 [2]: 24.2 µM
Ratio CC50/IC50 [3]: <1
Activity (Simplexvirus): inactive
MBC (Staphylococcus aureus): > 100 µg/mL
MIC (Staphylococcus aureus): > 100 µg/mL
MBC (Enterobacter cloacae): > 100 µg/mL
MIC (Enterobacter cloacae): > 100 µg/mL
IC50 [4]: 850 µM
IC50 [5]: > 25.4 µg/mL
MBC (Escherichia coli): > 100 µg/mL
MIC (Escherichia coli): > 100 µg/mL
MBC (Salmonella paratyphi): > 100 µg/mL
MIC (Salmonella paratyphi): > 100 µg/mL
MBC [6]: > 100 µg/mL
MIC [6]: > 100 µg/mL
CC50 [7]: 25.4 µg/mL (≈ 83.5 µM)

Oc1cc(O)c2c(c1)O[C@H](c1cc(O)c(O)c(O)c1)[C@H](O)C2 [EPIGALLOCATECHIN]
IC50 [1]: 179 µM
MBC (Proteus vulgaris): 100 µg/mL (≈ 327 µM)
MIC (Proteus vulgaris): 50 µg/mL (≈ 163 µM)
MBC (Klebsiella pneumoniae): 100 µg/mL (≈ 327 µM)
MIC (Klebsiella pneumoniae): 100 µg/mL (≈ 327 µM)
MBC (Pseudomonas aeruginosa): > 100 µg/mL
MIC (Pseudomonas aeruginosa): > 100 µg/mL
MBC (Candida albicans): > 100 µg/mL
MIC (Candida albicans): > 100 µg/mL
IC50 [2]: 3.4 µM
Ratio CC50/IC50 [3]: <1
Activity (Simplexvirus): inactive
MBC (Staphylococcus aureus): > 100 µg/mL
MIC (Staphylococcus aureus): > 100 µg/mL
MBC (Enterobacter cloacae): > 100 µg/mL
MIC (Enterobacter cloacae): > 100 µg/mL
IC50 [4]: 19.6 µM
IC50 [5]: > 16.1 µg/mL
MBC (Escherichia coli): > 100 µg/mL
MIC (Escherichia coli): > 100 µg/mL
MBC (Salmonella paratyphi): > 100 µg/mL
MIC (Salmonella paratyphi): > 100 µg/mL
MBC [6]: > 100 µg/mL
MIC [6]: > 100 µg/mL
CC50 [7]: 16.1 µg/mL (≈ 52.6 µM)

Oc1cc(O)c2c(c1)O[C@@]1(c3ccc(O)c(O)c3)Oc3cc(O)c4c(c3[C@@H]2[C@H]1O)O[C@H](c1ccc(O)c(O)c1)[C@@H](O)C4 [PROANTHOCYANIDIN A1]
IC50 [1]: 105 µM
MIC (Proteus vulgaris): 50 µg/mL (≈ 86.7 µM)
MBC (Pseudomonas aeruginosa): > 100 µg/mL
MIC (Pseudomonas aeruginosa): > 100 µg/mL
MBC (Candida albicans): > 100 µg/mL
MIC (Candida albicans): > 100 µg/mL
IC50 [2]: 14.7 µM
Ratio CC50/IC50 [3]: 10
Activity (Simplexvirus): inactive
MBC (Staphylococcus aureus): > 100 µg/mL
MIC (Staphylococcus aureus): > 100 µg/mL
MBC (Enterobacter cloacae): > 100 µg/mL
MIC (Enterobacter cloacae): > 100 µg/mL
IC50 [4]: 57.1 µM
IC50 [5]: 14 µg/mL (≈ 24.3 µM)
MBC (Escherichia coli): > 100 µg/mL
MIC (Escherichia coli): > 100 µg/mL
MBC (Salmonella paratyphi): > 100 µg/mL
MIC (Salmonella paratyphi): > 100 µg/mL
MBC [6]: > 100 µg/mL
MIC [6]: > 100 µg/mL
CC50 [7]: 144 µg/mL (≈ 250 µM)

Oc1cc(O)c2c(c1)O[C@@]1(c3ccc(O)c(O)c3)Oc3cc(O)c4c(c3[C@@H]2[C@H]1O)O[C@H](c1ccc(O)c(O)c1)[C@H](O)C4 [PROANTHOCYANIDIN A2]
IC50 [1]: 113 µM
MIC (Bacillus cereus): 100 µg/mL (≈ 173 µM)
MBC (Pseudomonas aeruginosa): > 100 µg/mL
MIC (Pseudomonas aeruginosa): > 100 µg/mL
MBC (Candida albicans): > 100 µg/mL
MIC (Candida albicans): > 100 µg/mL
IC50 [2]: 17.8 µM
MBC (Streptococcus pyogenes): 50 µg/mL (≈ 86.7 µM)
MIC (Streptococcus pyogenes): 50 µg/mL (≈ 86.7 µM)
Ratio CC50/IC50 [3]: 24
Activity (Simplexvirus): inactive
MBC (Staphylococcus aureus): > 100 µg/mL
MIC (Staphylococcus aureus): > 100 µg/mL
MBC (Enterobacter cloacae): > 100 µg/mL
MIC (Enterobacter cloacae): > 100 µg/mL
IC50 [4]: 11.6 µM
IC50 [5]: 5.8 µg/mL (≈ 10.1 µM)
MBC (Escherichia coli): > 100 µg/mL
MIC (Escherichia coli): > 100 µg/mL
MBC (Salmonella paratyphi): > 100 µg/mL
MIC (Salmonella paratyphi): > 100 µg/mL
MBC [6]: > 100 µg/mL
MIC [6]: > 100 µg/mL
CC50 [7]: 138 µg/mL (≈ 239 µM)

Oc1cc(O)c2c(c1)O[C@H](c1ccc(O)c(O)c1)[C@H](O)[C@H]2c1c(O)cc(O)c2c1O[C@H](c1ccc(O)c(O)c1)[C@H](O)C2 [PROCYANIDIN B2]
Activity [1]: inactive
MBC (Pseudomonas aeruginosa): > 100 µg/mL
MIC (Pseudomonas aeruginosa): > 100 µg/mL
MBC (Candida albicans): > 100 µg/mL
MIC (Candida albicans): > 100 µg/mL
IC50 [2]: 10.5 µM
MBC (Streptococcus pyogenes): 100 µg/mL (≈ 173 µM)
MIC (Streptococcus pyogenes): 100 µg/mL (≈ 173 µM)
Ratio CC50/IC50 [3]: 8
Activity (Simplexvirus): inactive
MBC (Staphylococcus aureus): > 100 µg/mL
MIC (Staphylococcus aureus): > 100 µg/mL
MBC (Enterobacter cloacae): > 100 µg/mL
MIC (Enterobacter cloacae): > 100 µg/mL
IC50 [4]: 58 µM
IC50 [5]: 17.2 µg/mL (≈ 29.7 µM)
MBC (Escherichia coli): > 100 µg/mL
MIC (Escherichia coli): > 100 µg/mL
MBC (Salmonella paratyphi): > 100 µg/mL
MIC (Salmonella paratyphi): > 100 µg/mL
MBC [6]: > 100 µg/mL
MIC [6]: > 100 µg/mL
CC50 [7]: 135 µg/mL (≈ 234 µM)

Oc1cc(O)c2c(c1)O[C@H](c1ccc(O)c(O)c1)[C@H](O)[C@H]2c1c(O)cc(O)c2c1O[C@H](c1ccc(O)c(O)c1)[C@H](O)[C@H]2c1c(O)cc(O)c2c1O[C@H](c1ccc(O)c(O)c1)[C@H](O)C2 [PROCYANIDIN C1]
IC50 [1]: 85.5 µM
MBC (Pseudomonas aeruginosa): > 100 µg/mL
MIC (Pseudomonas aeruginosa): > 100 µg/mL
MBC (Candida albicans): > 100 µg/mL
MIC (Candida albicans): > 100 µg/mL
IC50 [2]: 10.7 µM
MBC (Streptococcus pyogenes): 100 µg/mL (≈ 115 µM)
MIC (Streptococcus pyogenes): 100 µg/mL (≈ 115 µM)
Ratio CC50/IC50 [3]: 5
Activity (Simplexvirus): inactive
MBC (Staphylococcus aureus): > 100 µg/mL
MIC (Staphylococcus aureus): > 100 µg/mL
MBC (Enterobacter cloacae): > 100 µg/mL
MIC (Enterobacter cloacae): > 100 µg/mL
IC50 [4]: 6 µM
IC50 [5]: 4.3 µg/mL (≈ 4.96 µM)
MBC (Escherichia coli): > 100 µg/mL
MIC (Escherichia coli): > 100 µg/mL
MBC (Salmonella paratyphi): > 100 µg/mL
MIC (Salmonella paratyphi): > 100 µg/mL
MBC [6]: > 100 µg/mL
MIC [6]: > 100 µg/mL
CC50 [7]: 16.5 µg/mL (≈ 19 µM)
